Reference: PubChem BioAssay (NCI)
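Test compounds were applied to cells in 96-well plates for 48 hours at 5 doses. GI50 = concentration required for 50% inhibition of growth. TGI denotes the concentration required for complete inhibition of growth.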

Legend:
Assay in all cases: NCI-60 cell line screen, 48 h
[1] = system: TK-10 renal
[2] = system: HT29 colon
[3] = system: OVCAR-4 ovarian
[4] = system: NCI-H23 lung
[5] = system: SK-MEL-2 melanoma
[6] = system: OVCAR-3 ovarian
[7] = system: SF-268 CNS
[8] = system: SN12C renal
[9] = system: SK-MEL-28 melanoma
[10] = system: SW-620 colon
[11] = system: BT-549 breast
[12] = system: MDA-MB-435
[13] = system: T-47D breast
[14] = system: KM12 colon
[15] = system: MOLT-4 leukemia
[16] = system: HCT-116 colon
[17] = system: M14 melanoma
[18] = system: MCF7 breast
[19] = system: SF-539 CNS
[20] = system: PC-3 prostate
[21] = system: UACC-62 melanoma
[22] = system: HS 578T breast
[23] = system: ACHN renal
[24] = system: SNB-19 CNS
[25] = system: UO-31 renal
[26] = system: NCI-H226 lung
[27] = system: NCI-H522 lung
[28] = system: UACC-257 melanoma
[29] = system: OVCAR-5 ovarian
[30] = system: HCC-2998 colon
[31] = system: HOP-92 NSCLC
[32] = system: U251 CNS
[33] = system: LOX IMVI melanoma
[34] = system: RXF 393 renal
[35] = system: COLO 205 colon
[36] = system: OVCAR-8 ovarian
[37] = system: A549 NSCLC
[38] = system: A498 renal
[39] = system: EKVX NSCLC
[40] = system: CAKI-1 renal
[41] = system: CCRF-CEM leukemia
[42] = system: NCI/ADR-RES ovarian
[43] = system: HCT-15 colon
[44] = system: SK-MEL-5 melanoma
[45] = system: K-562 leukemia
[46] = system: RPMI-8226 leukemia
[47] = system: SF-295 CNS
[48] = system: MALME-3M melanoma
[49] = system: MDA-MB-231 breast
[50] = system: HOP-62 NSCLC
[51] = system: IGROV1 ovarian
[52] = system: 786-0 renal
[53] = system: HL-60(TB) leukemia
[54] = system: DU-145 prostate
[55] = system: NCI-H460 lung
[56] = system: SR leukemia
[57] = system: SNB-75 CNS
[58] = system: SK-OV-3 ovarian

`C[C@@H](Nc1c(C#N)cnc2ccc(-c3cnc(Cl)c(NS(C)(=O)=O)c3)cc12)c1ccccc1` showed a GI50 [1] of 184 nM, a TGI [1] of 1880 nM and a GI50 [2] of 351 nM. It also gave a TGI [2] of 12900 nM, a GI50 [3] of 450 nM and a TGI [3] of 15400 nM. The GI50 [4] was 233 nM, the TGI [4] was 5840 nM and the GI50 [5] was 249 nM. For the same compound, the TGI [5] was 1590 nM, the GI50 [6] was 260 nM and the TGI [6] was 3820 nM. It also gave a GI50 [7] of 275 nM, a TGI [7] of 7330 nM and a GI50 [8] of 322 nM. For the same compound, the TGI [8] was > 100000 nM, the GI50 [9] was 346 nM and the TGI [9] was 11200 nM. For the same compound, the GI50 [10] was 343 nM, the TGI [10] was 12100 nM and the GI50 [11] was 146 nM. The TGI [11] was 2560 nM, the GI50 [12] was 495 nM and the TGI [12] was 11400 nM. It also gave a GI50 [13] of 112 nM, a TGI [13] of 3880 nM and a GI50 [14] of 493 nM. It also gave a TGI [14] of 11300 nM, a GI50 [15] of 144 nM and a TGI [15] of 1810 nM. For the same compound, the GI50 [16] was 124 nM, the TGI [16] was 4830 nM and the GI50 [17] was 442 nM. For the same compound, the TGI [17] was 12500 nM, the GI50 [18] was 41.7 nM and the TGI [18] was 4080 nM. For the same compound, the GI50 [19] was 372 nM, the TGI [19] was 4080 nM and the GI50 [20] was 259 nM. For the same compound, the TGI [20] was 7970 nM, the GI50 [21] was 206 nM and the TGI [21] was 2030 nM. It also gave a GI50 [22] of 181 nM, a TGI [22] of 1290 nM and a GI50 [23] of 540 nM. The TGI [23] was 44100 nM, the GI50 [24] was 500 nM and the TGI [24] was 12100 nM. The GI50 [25] was 256 nM, the TGI [25] was 9300 nM and the GI50 [26] was 676 nM. For the same compound, the TGI [26] was 18200 nM, the GI50 [27] was 440 nM and the TGI [27] was 11500 nM. The GI50 [28] was 495 nM, the TGI [28] was 7050 nM and the GI50 [29] was 544 nM. For the same compound, the TGI [29] was 19200 nM, the GI50 [30] was 515 nM and the TGI [30] was 8730 nM. The GI50 [31] was 51.5 nM, the TGI [31] was 636 nM and the GI50 [32] was 335 nM. For the same compound, the TGI [32] was 13400 nM, the GI50 [33] was 275 nM and the TGI [33] was 1680 nM. It also gave a GI50 [34] of 158 nM, a TGI [34] of 877 nM and a GI50 [35] of 340 nM. The TGI [35] was 2240 nM, the GI50 [36] was 559 nM and the TGI [36] was > 36600 nM. It also gave a GI50 [37] of 492 nM, a TGI [37] of 6470 nM and a GI50 [38] of 207 nM. For the same compound, the TGI [38] was 778 nM, the GI50 [39] was 431 nM and the TGI [39] was 5350 nM. It also gave a GI50 [40] of 241 nM, a TGI [40] of 3980 nM and a GI50 [41] of 178 nM. The TGI [41] was > 21400 nM, the GI50 [42] was 1610 nM and the TGI [42] was 32100 nM. The GI50 [43] was 303 nM, the TGI [43] was 11500 nM and the GI50 [44] was 138 nM. For the same compound, the TGI [44] was 283 nM, the GI50 [45] was 264 nM and the TGI [45] was > 100000 nM. For the same compound, the GI50 [46] was 121 nM, the TGI [46] was 582 nM and the GI50 [47] was 252 nM. The TGI [47] was 2290 nM, the GI50 [48] was 166 nM and the TGI [48] was 1820 nM. The GI50 [49] was 594 nM, the TGI [49] was 16600 nM and the GI50 [50] was 326 nM. For the same compound, the TGI [50] was 5120 nM, the GI50 [51] was 181 nM and the TGI [51] was 1010 nM. For the same compound, the GI50 [52] was 365 nM, the TGI [52] was > 100000 nM and the GI50 [53] was 222 nM. It also gave a TGI [53] of 6480 nM, a GI50 [54] of 380 nM and a TGI [54] of 11700 nM. For the same compound, the GI50 [55] was 357 nM, the TGI [55] was 12000 nM and the GI50 [56] was 206 nM. For the same compound, the TGI [56] was 6190 nM, the GI50 [57] was < 35.3 nM and the TGI [57] was 701 nM. For the same compound, the GI50 [58] was 431 nM and the TGI [58] was 3180 nM.
